Data reported in patent US7811778B2, “Methods of screening for gastrointestinal cancer” (Vanderbilt University, priority 2006, dated 2010).
“And” between values parts separate entries of the source, which are not always exact repeats. Equal values may be shown once. “Also recorded” adds a separate entry of the source.

Columns and labels:
[1] = system: emerging SPEM cells; experiment: Quantitative PCR of transcripts in microdissected cells during emergence of SPEM; type: in vivo, gastrin-deficient mice
Method: Total RNA isolated from laser-capture microdissected cell collections from the stomachs of normal and DMP-777 1-day-treated and DMP-777 3-day—treated gastrin-deficient mice was analyzed by quantitative PCR assays. Reverse transcription from each total RNA sample was performed using random primers and Quantiscript Reverse transcriptase (Qiagen. Valencia, Calif.), for 30 minutes at 42° C. Quantitative real-time PCR was performed with a 3-step method using the Bio-Rad iCycler iQ real-time PCR detection system (Bio-Rad Laboratories, Hercules, Calif.). Each reaction was carried out in a 50 μL mixture consisting of QuantiTect SYBR Green PCO Master Mix (Qiagen), and 1 μL of template cDNA. The PCR conditions for quantitative real-time PCR were; 95° C. for 10 minutes 45 cycles of 94° C. for 15 seconds, 60° C. for 30 seconds, and 72° C. for 30 seconds. Quantitation of cDNA template in each sample was determined using the comparative threshold cycle (CT) method using GAPDH as a control, as described previously (Nomura S, Baxter S, Yamaguchi T, Leys C, Vartapetian A B, Fox J G, Lee J R, Wang T C, Goldenring J R. Relationship of spasmolytic polypeptide expressing metaplasia (SPEM) to pre-neoplasia in H. felis-infected mice. Gastroenterology 2004; 127:582-594). Statistical comparisons of the mean ΔΔCT between groups were determined using the Mann-Whitney U Test
However, by quantitative PCR assays, TFF2 levels were elevated greater than 7-fold in emerging SPEM from DMP-777 treated animals (FIG. 5).

[2] = system: fundic mucosa; experiment: Immunohistochemistry / immunofluorescence of stomachs of DMP-777-treated mice; type: in vivo, gastrin-deficient mice
Text: Excised stomachs from Gastrin-deficient mice treated with DMP-777 or untreated controls embedded in paraffin were used for immunohistochemistry analysis Stomachs from C57BL/6 wild-type mice and sections from H. felis-infected C57BL/6 mice (infected for 6 months) were also examined with staining as a comparison. For immunohistochemistry, except for Mist1 staining, deparaffinized sections were pretreated with antigen retrieval using Target Retrieval solution (DakoCytomation, Glostrup, Denmark) at 120° C. for 15 minutes, followed by immediate cooling using iced water. For immunohistochemistry of Mist1, Trilogy antigen retrieval solution (Cell Marque, Austin. Tex.) was used during the antigen retrieval procedure. Sections were treated with 2% blocking serum and then incubated with the primary antibody overnight at 4° C. Immunostaining was performed with the following primary antibodies; murine monoclonal immunoglobulin M (IgM) anti-trefoil factor family 2 (TFF2, a gift from Sir Nicholas Wright, Cancer Research UK; 1:1000); rabbit anti-Mist1 (1:2000); murine monoclonal anti-H/K-ATPase (a gift from Dr. Adam J. Smolka, Medical University of South Carolina; 1:100,000); rabbit anti-HE4 (1:2000); rabbit anti-intrinsic factor (a gift from Dr. David Alpers, Washington University, St. Louis; 1:2000);, goat anti-Intrinsic factor (1:2000): rabbit anti-MCM3 (1:2000); rat monoclonal anti-Ki67 (TEC-3, DakoCytomation; 1:200).
For immunofluorescence analysis, Cy3-goat anti-mouse IgM antibody, Cy5-goat anti-mouse IgG antibody (Jackson ImmunoResearch, West Grove, Pa.) and Alexa488 goat anti-rabbit IgG (Invitrogen, Carlsbad, Calif.) were used. PROLONG® Gold Antifade Reagent with DAPI (Invitrogen) was used for nuclear counterstain and mounting medium.
For immunohistochemistry with detection with diaminobenzidine, the sections were incubated with biotinylated secondary antibody followed by horseradish peroxidase-conjugated streptavidin. Chromogen was developed with diaminobenzidine (Biogenex, San Ramon, Calif.). For immunohistochemistry with alkaline-phosphatase detection, the sections were incubated with biotinylated secondary antibody followed by alkaline-phosphatase-conjugated avidin-biotin complex. Chromogen was developed with VECTOR® Red Substrate (Vector Laboratories, Burlingame, Calif.). All sections were counterstained with Gill's hematoxylin.
Sections were viewed and photographed on Zeiss AXIOPHOT® microscope equipped with an AXIOVISION® digital imaging system (Zeiss) or FLUOVIEW® FV1000 confocal microscope system (Olympus).

[3] = system: chief cells / SPEM cells at the bases of fundic glands; experiment: Electron microscopy of gastric fundic region; type: in vivo; conditions: gastrin-deficient mice treated for 3 days with DMP-777
Method: Fresh specimens from the gastric fundic region of untreated controls and 3-day DMP-777 treated gastrin-deficient mice fixed for 2.5 hour on ice in 2.5% glutaraldehyde, 0.1 M Cacodytate Buffer in PBS. The samples were fixed overnight at 4° C. in 1% osmium tetroxide (OSO4) and 0.1M Cacodylate Buffer. Subsequently, the samples were subjected to an ethanol dehydration series and embedded in Spurrs resin. 50˜100 nm thin sections were cut and collected on 200-mesh, formvar-coated copper grids. After drying overnight, the grids were contrast stained with 2% depleted Uranyl Acetate (UA) and then stained with saturated lead citrate. Samples were examined on a Philips CM12 Electron Microscope.

[4] = system: parietal cells; conditions: cited from earlier work
[5] = microdissected cells, DMP-777 1 or 3 days vs untreated chief cells

CCC[C@@H](NC(=O)N1C(=O)C(CC)(CC)[C@@H]1Oc1ccc(C(=O)N2CCN(C)CC2)cc1)c1ccc2c(c1)OCO2 [DMP-777]
TFF2 levels by quantitative PCR ([1]; emerging SPEM from DMP-777 treated animals vs untreated chief cells): greater than 7 fold
G1/S associated transcripts MCM3, MCM5, MCM7 and ATF3 by quantitative PCR [1, 5]: up-regulation of G1/associated transcripts was confirmed
ST3Gal6 transcript by quantitative PCR [1, 5]: down-regulation ST3Gal6 was confirmed
transcripts for putative soluble mediators HE4 and IL1RN by quantitative PCR [1, 5]: up-regulation of transcripts for putative soluble mediators was also confirmed
quantification of Ki-67 staining (FIG. 6F) ([2]; 1 to 14 days of treatment, *p<0.05 at 7 days): smaller increase, which was only significant at 7 days of treatment
HE4 expression in SPEM cells at the bases of fundic glands (immunostaining) ([2]; DMP-777 treated gastrin-deficient mice): prominent up-regulation
TACC3 expression in cells at the bases of gastric glands ([2]; after only one day of DMP-777 treatment): TACC3 expression was evident
HE4 immunoreactivity in SPEM ([2]; after only one day of treatment): markedly increased
quantification of MCM3 staining (FIG. 6F) ([2]; days 3-14 of treatment, **p<0.01, ***p<0.001): significant increase
TFF2 and intrinsic factor staining in cells at the bases of fundic glands ([2]; gastrin deficient mice treated for 3 days with DMP-777): SPEM cells expressing two separate populations of TFF2 and intrinsic factor staining granules were present
Ki67 positive cell numbers ([2]; gastrin-deficient mice after DMP-777 treatment): only a small increase
number of Mist1 immunoreactive cells at the bases of glands ([2]; gastrin-deficient mice treated with DMP-777 for three days): decreased
number of MCM3 positive cells ([2]; gastrin-deficient mice, after 1 day of DMP-777, remained elevated through 14 days): increased
TACC3 expression in SPEM cells at the bases of fundic glands ([2]; treatment with DMP-777 for 3 days): strongly up-regulated
granule morphology of SPEM cells at the bases of fundic glands (electron microscopy) [3]: heterogeneous set of granule morphologies
morphological evidence of apoptosis (electron microscopy) [3]: no morphological evidence of apoptosis
inflammatory infiltrate ([4]; DMP-777 treated animals): absence of significant inflammatory infiltrate
induction of SPEM in gastrin-deficient (knockout) mice ([4]; gastrin knockout mice): rapid induction of metaplasia after only one day of DMP-777 treatment; also recorded: develop SPEM after only one dose of DMP-777; also recorded: develop SPEM after only a single dose of DMP-777
surface cell (foveolar) hyperplasia in response to DMP-777 ([4]; gastrin knockout mice): do not develop surface cell hyperplasia
cells expressing both intrinsic factor and TFF2 (dual expressing cells) ([4]; gastrin-deficient mice, after only one day of treatment): rapid increase in dual expressing cells
loss of parietal cells ([4]; mice or rats, high doses of oral DMP-777 (>200 mg/kg/d), three days of administration): rapid loss of parietal cells
time of oxyntic atrophy until SPEM develops in the fundus ([4]; mice or rats, oral DMP-777 >200 mg/kg/d): 7 to 10 days
dysplastic lesions ([4]; mice or rats, prolonged administration of drug for up to a year): no dysplastic lesions are ever observed
time to loss of acid-secreting parietal cells ([4]; rodents): within one to three days
days of treatment required for SPEM in wild type C57BL/6 mice ([4]; wild type C57BL/6 mice): 7 to 10 days and 10 to 14 days
